Reference: patent US10508309B2, “Methods for detecting and treating variants of seborrheic keratoses” (THE GENERAL HOSPITAL CORPORATION, priority 2013, dated 2019)

Tested on: SK
Assay: Response to A44/puro (summary of features for KA, SK, and SCC)
Details: seborrheic keratosis (SK) column; the KA and SCC cells print "?"

COc1ccc(C[C@H](N)C(=O)N[C@H]2[C@@H](O)[C@H](n3cnc4c(N(C)C)ncnc43)O[C@@H]2CO)cc1 [puro, puromycin]
Response to A44/puro?: Yes
